Like-named read-outs stand apart in the source and are kept apart here.

What all share (format): cell-based, Acinetobacter baumannii
Assay [1] deals with A.baumannii bacteria with resistance to colistin. As to the kind of experiment: Colistin gradient test (E-test) on Mueller Hinton Agar with and without methylene blue. How it is done: (§1) Firstly, colistin-susceptible A.baumannii strains obtained from the same passage were subcultured on media (Mueller Hinton Agar) containing 14 mcg/ml methylene blue and without methylene blue and colistin gradient test (E-test) strips were placed on them.
Later, the same tests were performed on A.baumannii bacteria with resistance to colistin. While there was growth in the medium without methylene blue (Mueller Hinton Agar), there was no growth in the medium containing methylene blue. […] These bacterial varieties with resistance to colistin were tested based on species with different levels of MIC (minimum inhibitory concentrations) for colistin. […] In other words, it's understood these bacteria were inhibited. […] The probable cause of this reduction is that those with MIC values more than 0.5 mcg/ml in the bacterial population were selectively killed by methylene blue. […] However, the inhibition rate for strains with high MIC value (like 32 mcg/ml) was higher than the inhibition rate for strains with low MIC value (like 4-8 mcg/ml). In other words, the susceptiblity to methylene blue is proportional to the colistin resistance levels of colistin-resistant A.baumannii bacteria.
These effects of inhibition of colistin-resistant A.baumannii bacteria by methylene blue are clearly understood from the appearance on MHA (Mueller Hinton Agar) media. Image 1 and 2 provide the appearance of A.baumannii strains with homogeneous resistance to colistin on MHA (Mueller Hinton Agar) media. […] Images 3 and 4 provide images of heteroresistant A.baumannii strains with resistance to colistin on MHA.

The test system of assay [2] is colistin-susceptible A.baumannii strains. The description is as above.
From the text: as §1

Assay [3] relates to A.baumannii bacteria with resistance to colistin. On the procedure:
as §1
Later, the same tests were performed on A.baumannii bacteria with resistance to colistin. […] These bacterial varieties with resistance to colistin were tested based on species with different levels of MIC (minimum inhibitory concentrations) for colistin.

In assay [4] the test system is colistin-susceptible A.baumannii strains. Briefly: Growth on Mueller Hinton Agar with and without methylene blue. To be noted: 14 mcg/ml methylene blue in Mueller Hinton Agar.
From the text: as §1

On to Colistin (polymyxin E), for which the MIC in assay [1] (14 mcg/ml methylene blue on MHA, heteroresistant strain, outer zone (MIC 2 mcg/ml before)) came to 0.5 µg/mL; in assay [1] (MHA without methylene blue, heteroresistant strain, internal zone (Image 3)), 32 µg/mL; in assay [1] (MHA without methylene blue, heteroresistant strain, outer zone (Image 3)) it was 2 µg/mL; in assay [1] (MHA without methylene blue, strain with homogeneous resistance to colistin (Image 1)), 32 µg/mL. Moreover, the “MIC (minimum inhibitory concentration)” value in assay [1] (with methylene blue, bacteria with low levels of colistin resistance (MIC 1 or 3 mcg/ml before)) worked out at 0.5 µg/mL; in assay [1] (without methylene blue, bacteria with high levels of colistin resistance) it was 32 µg/mL. Moreover, in assay [2] (medium containing methylene blue vs without, colistin susceptible strains), the “regression of colistin MIC” value was about 0.5 µg/mL.

As to `CN(C)c1ccc2nc3ccc(=[N+](C)C)cc-3sc2c1` [methylene blue], the growth inhibition entry in assay [3] (14 mcg/ml methylene blue on MHA, heteroresistant strain, internal zone with colistin MIC 32 mcg/ml) is reported as “totally inhibited”; in assay [3] (14 mcg/ml methylene blue on MHA, homogeneously resistant strain with colistin MIC 32 mcg/ml (Image 2)) it was “completely inhibited”; in assay [3] (methylene blue medium, bacteria with high levels of colistin resistance (MIC value 32 mcg/ml)), “completely stopped growth”; in assay [3] (methylene blue medium, bacteria with low levels of colistin resistance (MIC value 1 or 3 mcg/ml)), “did not completely stop growing”; in assay [4] it was “did not inhibit growth”. Moreover, in assay [3] (medium containing methylene blue (14 mcg/ml), colistin resistant bacteria, growth in medium without methylene blue), the growth entry is “no growth”. For the same compound, in assay [3] (methylene blue solution, all subpopulations with colistin MIC value above 0.5 mcg/ml), the “inhibitory effect on bacterial subpopulations” value was “inhibitory effects”. In addition, the “increase of susceptibility to colistin” value in assay [2] (effect of methylene blue, strains with colistin MIC values of 0.5 mcg/ml or less) was “no increased susceptibility”. For the same compound, in assay [2] (medium containing 14 mcg/ml methylene blue, colistin susceptible strains), the “susceptibility of A.baumannii strain to colistin” value was “slightly increased”.

The term MIC denotes the least concentration at which growth counts as inhibited.

Source of the values: patent EP3344255B1 (priority 2016, dated 2017).
